{"source": "patent EP0029990A1", "about": "“Biphenylmethane derivative, methods for its production and pharmaceutical compositions containing it” (Byk Gulden Lomberg Chemische Fabrik GmbH, priority 1979, dated 1981)", "key": {"[1]": {"experiment": "Acute toxicity (LD50), intravenous administration, rat", "details": "in vivo", "description": "(§1) Ihre Toxizität ist geringer als die des aus einem Gemisch von Kondensationsprodukten aus m-Kresolsulfonsäuren und Formaldehyd bestehenden Handelsprodukts. In der nachstehenden Tabelle sind die bei intravenöser Verabreichung an Maus und Ratte ermittelten LDSo-Werte des Dinatriumsalzes der 2,2'-Dihydroxy-5,5'-methylendi-(p-toluolsulfonsäure) (A) und des mit Natriumhydroxid neutralisierten Handelsprodukts (B) aufgeführt."}, "[2]": {"experiment": "Acute toxicity (LD50), intravenous administration, mouse", "details": "in vivo", "description": "as §1"}}}
{"smiles": "Cc1cc(O)c(S(=O)(=O)O)cc1Cc1cc(S(=O)(=O)O)c(O)cc1C", "note": "[A, Dinatrium-2,2'-dihydroxy-5,5'-methylendi-(p-toluolsulfonat)-monohydrat]", "values": [{"measurement": "LD50", "setting": "[1]; Ratte ♀", "result": 990, "unit": "mg/kg"}, {"measurement": "LD50", "setting": "[1]; Ratte ♂", "result": 930, "unit": "mg/kg"}, {"measurement": "LD50", "setting": "[2]; Maus ♀", "result": 1050, "unit": "mg/kg"}, {"measurement": "LD50", "setting": "[2]; Maus ♂", "result": 1100, "unit": "mg/kg"}]}
